Test system: patients with advanced or metastatic breast cancer
Test: Adverse events (CTCAE Ver. 4.0), dose-limiting toxicities and dose reductions under everolimus
Type: in vivo, human
Source text: This was a prospective, observational PK study. Patients with advanced or metastatic breast cancer who received everolimus between November 2015 and November 2018 at Kobe City Medical Center General Hospital were enrolled in this study. The main inclusion criteria included the following: age ≥20 years; Eastern Cooperative Oncology Group (ECOG) performance status (PS): 0 or 1; and adequate bone marrow, liver, and renal function. The main exclusion criteria were interstitial pneumonia or pulmonary fibrosis, HBsAg positive, and psychiatric or psychological symptoms that made it difficult to participate in the study. Every participant provided written informed consent. This study was conducted in accordance with the Declaration of Helsinki and approved by the Institutional Review Board, under Approval Number zn151103.
Based on the physician’s decision, the patients were prescribed a starting dose of either 5 or 10 mg everolimus once daily. The everolimus dose was reduced when a patient experienced adverse events higher than grade 2. The first reduced dose was 5 mg once daily, followed by the second reduced dose of 2.5 mg once daily or 5 mg every alternate day. In addition, everolimus doses could be increased if adverse events improved to grade 1 or less, or deemed inefficacious. The adverse events were evaluated weekly for the first month and then every 1–4 weeks, according to the Common Terminology Criteria for Adverse Events Ver. 4.0.
Statistical differences in everolimus trough concentrations, doses and body weights between patient cohorts were assessed using the Mann–Whitney test. Progression-free survival (PFS) was assessed using the Kaplan-Meier method and the log-rank test. All statistical analyses were performed using GraphPad Prism version 7.03 (San Diego, CA). p < 0.05 was considered statistically significant.

[1] = Initial dose: 5 mg/day (n = 6), Grade 3
[2] = Initial dose: 5 mg/day (n = 6), Grade 4
[3] = Initial dose: 5 mg/day (n = 6), Grade All
[4] = Initial dose: 10 mg/day (n = 12), Grade 1
[5] = Initial dose: 10 mg/day (n = 12), Grade 2
[6] = Initial dose: 10 mg/day (n = 12), Grade 3
[7] = Initial dose: 10 mg/day (n = 12), Grade 4
[8] = Initial dose: 10 mg/day (n = 12), Grade All

CO[C@H]1C[C@@H]2CC[C@@H](C)[C@@](O)(O2)C(=O)C(=O)N2CCCC[C@H]2C(=O)O[C@H]([C@H](C)C[C@@H]2CC[C@@H](OCCO)[C@H](OC)C2)CC(=O)[C@H](C)/C=C(\C)[C@@H](O)[C@@H](OC)C(=O)[C@H](C)C[C@H](C)/C=C/C=C/C=C/1C [everolimus]
Adverse event, n: Diarrhea [1]: 0 | Adverse event, n: Dysgeusia [1]: 0 | Adverse event, n: Epistaxis [1]: 0 | Adverse event, n: High cholesterol [1]: 0 | Adverse event, n: Hyperglycemia [1]: 0 | Adverse event, n: Hypertriglyceridemia [1]: 0 | Adverse event, n: Hypokalemia [1]: 1 | Adverse event, n: Interstitial lung disease [1]: 0 | Adverse event, n: Malaise [1]: 0 | Adverse event, n: Mucositis oral [1]: 0 | Adverse event, n: Neutrophil count decreased [1]: 0 | Adverse event, n: Platelet decrease [1]: 0 | Adverse event, n: Rash [1]: 0 | Adverse event, n: Diarrhea [2]: 0 | Adverse event, n: Dysgeusia [2]: 0 | Adverse event, n: Epistaxis [2]: 0 | Adverse event, n: High cholesterol [2]: 0 | Adverse event, n: Hyperglycemia [2]: 0 | Adverse event, n: Hypertriglyceridemia [2]: 0 | Adverse event, n: Hypokalemia [2]: 0 | Adverse event, n: Interstitial lung disease [2]: 0 | Adverse event, n: Malaise [2]: 0 | Adverse event, n: Mucositis oral [2]: 0 | Adverse event, n: Neutrophil count decreased [2]: 0 | Adverse event, n: Platelet decrease [2]: 0 | Adverse event, n: Rash [2]: 0 | Adverse event, n: Diarrhea [3]: 1 | Adverse event, n: Dysgeusia [3]: 2 | Adverse event, n: Epistaxis [3]: 2 | Adverse event, n: High cholesterol [3]: 4 | Adverse event, n: Hyperglycemia [3]: 2 | Adverse event, n: Hypertriglyceridemia [3]: 3 | Adverse event, n: Hypokalemia [3]: 3 | Adverse event, n: Interstitial lung disease [3]: 1 | Adverse event, n: Malaise [3]: 2 | Adverse event, n: Mucositis oral [3]: 6 | Adverse event, n: Neutrophil count decreased [3]: 0 | Adverse event, n: Platelet decrease [3]: 2 | Adverse event, n: Rash [3]: 4 | Adverse event, n: Diarrhea [4]: 1 | Adverse event, n: Dysgeusia [4]: 3 | Adverse event, n: Epistaxis [4]: 4 | Adverse event, n: High cholesterol [4]: 5 | Adverse event, n: Hyperglycemia [4]: 2 | Adverse event, n: Hypertriglyceridemia [4]: 6 | Adverse event, n: Hypokalemia [4]: 4 | Adverse event, n: Interstitial lung disease [4]: 3 | Adverse event, n: Malaise [4]: 5 | Adverse event, n: Mucositis oral [4]: 5 | Adverse event, n: Neutrophil count decreased [4]: 2 | Adverse event, n: Platelet decrease [4]: 7 | Adverse event, n: Rash [4]: 8 | Adverse event, n: Diarrhea [5]: 3 | Adverse event, n: Dysgeusia [5]: 0 | Adverse event, n: Epistaxis [5]: 0 | Adverse event, n: High cholesterol [5]: 2 | Adverse event, n: Hyperglycemia [5]: 1 | Adverse event, n: Hypertriglyceridemia [5]: 3 | Adverse event, n: Hypokalemia [5]: 1 | Adverse event, n: Interstitial lung disease [5]: 1 | Adverse event, n: Malaise [5]: 0 | Adverse event, n: Mucositis oral [5]: 6 | Adverse event, n: Neutrophil count decreased [5]: 3 | Adverse event, n: Platelet decrease [5]: 0 | Adverse event, n: Rash [5]: 2 | Adverse event, n: Diarrhea [6]: 0 | Adverse event, n: Dysgeusia [6]: 0 | Adverse event, n: Epistaxis [6]: 0 | Adverse event, n: High cholesterol [6]: 0 | Adverse event, n: Hyperglycemia [6]: 0 | Adverse event, n: Hypertriglyceridemia [6]: 0 | Adverse event, n: Hypokalemia [6]: 0 | Adverse event, n: Interstitial lung disease [6]: 0 | Adverse event, n: Malaise [6]: 0 | Adverse event, n: Mucositis oral [6]: 0 | Adverse event, n: Neutrophil count decreased [6]: 1 | Adverse event, n: Platelet decrease [6]: 0 | Adverse event, n: Rash [6]: 0 | Adverse event, n: Diarrhea [7]: 0 | Adverse event, n: Dysgeusia [7]: 0 | Adverse event, n: Epistaxis [7]: 0 | Adverse event, n: High cholesterol [7]: 0 | Adverse event, n: Hyperglycemia [7]: 0 | Adverse event, n: Hypertriglyceridemia [7]: 0 | Adverse event, n: Hypokalemia [7]: 1 | Adverse event, n: Interstitial lung disease [7]: 0 | Adverse event, n: Malaise [7]: 0 | Adverse event, n: Mucositis oral [7]: 0 | Adverse event, n: Neutrophil count decreased [7]: 0 | Adverse event, n: Platelet decrease [7]: 0 | Adverse event, n: Rash [7]: 0 | Adverse event, n: Diarrhea [8]: 4 | Adverse event, n: Dysgeusia [8]: 3 | Adverse event, n: Epistaxis [8]: 4 | Adverse event, n: High cholesterol [8]: 7 | Adverse event, n: Hyperglycemia [8]: 3 | Adverse event, n: Hypertriglyceridemia [8]: 9 | Adverse event, n: Hypokalemia [8]: 6 | Adverse event, n: Interstitial lung disease [8]: 4 | Adverse event, n: Malaise [8]: 5 | Adverse event, n: Mucositis oral [8]: 11 | Adverse event, n: Neutrophil count decreased [8]: 6 | Adverse event, n: Platelet decrease [8]: 7 | Adverse event, n: Rash [8]: 10 | stomatitis, incidence, all grade (all patients, n = 18): 94% | proportion of all patients who required a second dose reduction (from the starting dose of 10 mg (7/18)): 39% | number of patients with dose-limiting toxicities (DLTs) (of 18 patients, during the 10 months of the study period): 13 | proportion of patients who required dose reduction owing to adverse drug reactions (starting dose of 5 mg (5/6)): 83% | DLT while being treated with clarithromycin (three patients, clarithromycin 200 mg twice daily for 7 days (CYP3A4 inhibitor) during everolimus treatment): no DLT
